PubChem BioAssay (NCI)
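Values below derive from 48-hour exposures of cells grown in 96-well plates, with endpoints linearly interpolated between the two concentrations bracketing the appropriate inhibition level. Abbreviation: GI50, concentration required for 50% inhibition of growth. TGI is the concentration that stops growth completely.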

Key:
Test in all cases: growth of human tumour cells (NCI), 48 h
[1] = tested on: K-562 leukemia
[2] = tested on: CCRF-CEM leukemia
[3] = tested on: SK-OV-3 ovarian
[4] = tested on: SNB-19 CNS
[5] = tested on: PC-3 prostate
[6] = tested on: MOLT-4 leukemia
[7] = tested on: OVCAR-8 ovarian
[8] = tested on: MDA-MB-231 breast
[9] = tested on: NCI/ADR-RES ovarian
[10] = tested on: SN12C renal
[11] = tested on: KM12 colon
[12] = tested on: IGROV1 ovarian
[13] = tested on: HL-60(TB) leukemia
[14] = tested on: HOP-92 NSCLC
[15] = tested on: EKVX NSCLC
[16] = tested on: OVCAR-5 ovarian
[17] = tested on: SR leukemia
[18] = tested on: SNB-75 CNS

CC(C)c1ccc(C(=O)Nc2sc3c(CN(C)C)c(O)ccc3c2C(N)=O)cc1
GI50 [1]: 0.409 µM | TGI [1]: 4.55 µM | GI50 [2]: 2.2 µM | TGI [2]: 9.37 µM | GI50 [3]: 6.72 µM | TGI [3]: > 100 µM | GI50 [4]: 3.23 µM | TGI [4]: > 100 µM | GI50 [5]: 2.55 µM | TGI [5]: > 100 µM | GI50 [6]: 2.32 µM | TGI [6]: 8.51 µM | GI50 [7]: 3.07 µM | TGI [7]: > 100 µM | GI50 [8]: 3.27 µM | TGI [8]: > 100 µM | GI50 [9]: 2.64 µM | TGI [9]: > 100 µM | GI50 [10]: 2.2 µM | TGI [10]: > 100 µM | GI50 [11]: 0.728 µM | TGI [11]: > 100 µM | GI50 [12]: 2.02 µM | TGI [12]: > 100 µM | GI50 [13]: 1.74 µM | TGI [13]: 4.38 µM | GI50 [14]: 3.48 µM | TGI [14]: > 100 µM | GI50 [15]: 6.28 µM | TGI [15]: > 100 µM | GI50 [16]: 2.66 µM | TGI [16]: > 100 µM | GI50 [17]: 2.89 µM | TGI [17]: 8.79 µM | GI50 [18]: 2.09 µM | TGI [18]: > 100 µM
